Test results published in PMC7591920, “A protein tertiary structure mimetic modulator of the Hippo signalling pathway” (Nature Communications, 2020).
Each block holds one compound with its values, some of them ahead of it. Bridge positions count the residues as written; N and C are the ends. Square brackets hold non-standard residues; d marks the D form. Peptide text beside a SMILES is read from it. Orn = NCCC[C@H](N)C(=O)O; Dab = NCC[C@H](N)C(=O)O

Columns and labels:
RKO cells [1] = experiment: Sub-cellular (cytoplasmic, nuclear) peptide concentration in RKO cells by UPLC-MS; settings: for Sub-cellular drug content, Cytoplasm / Sub-cellular drug content, Cytoplasm, Measured concentration / Sub-cellular drug content, Nuclear / Sub-cellular drug content, Nuclear, Measured concentration / Sub-cellular drug content, Cytoplasm, nMol / Sub-cellular drug content, Nuclear, nMol / Sub-cellular drug content, Cytoplasm, pMol.mg-1 / Sub-cellular drug content, Nuclear, pMol.mg-1: n = 2; for pMol/mg: Nuclear; for Cytoplasmic concentration of peptide: cytoplasmic fraction; for Nuclear concentration of peptide: nuclear fraction; for Sub-cellular drug content, Cytoplasm, pMol.mg-1 / Sub-cellular drug content, Nuclear, pMol.mg-1: per mg protein; for Cytoplasmic concentration, raw data / Nuclear concentration, raw data: sheet Figure 3c, 25 µM unlabelled peptide; for Intracellular concentration: mass spectrometry
Procedure: (§1) Peptides were incubated in RKO cells (ATCC, #CRL-2577) as follows: Experiment 1: RKO cells were incubated in 25 µM compound for 90 min and 24 h. Experiment 2: RKO cells were incubated in 25 µM for 30 min or 72 h. Following peptide incubation, the cells were washed twice with PBS, trypsinized and pelleted. The pellets were lysed in RIPA buffer (Perkin Elmer) for total lysis, or CelLytic NuCLEAR Extraction Kit (SIGMA) for subcellular fractionation. Total protein quantification BCA (Pierce) was performed prior to MS analysis to normalize sample data. Total and fractionated cell lysates were analysed by quantitative UPLC-MS utilizing a Waters Xevo TQ-XS (WBA0259) and an Acquity UPLC system from Waters consisting of Sample Manager (M16UFL953M), Acquity PDA (F17UPD457A), Column Oven (E17CMP703G) and Binary Solvent Manager (E17BUR621G). […] Chromatograms of the samples were treated similarly, and by linear regression (1/x) an in-cell concentration was established in the re-suspended cell lysate using the Waters MassLynx TargetLynx^TM product.

RKO cells [2] = experiment: Total drug content in RKO cells by UPLC-MS; settings: 25 µM compound; for Total drug content, Measured Concentration: RIPA total lysis, diluted lysate; for Total drug content, Measured Concentration / Total drug content / Measured Conc: UPLC-MS; for Total drug content, Measured Concentration / Total drug content: n = 2; for Total drug content: total lysis; for Measured Conc / pMol/mg of protein, Mean / pMol/mg, Mean: total drug content; for pMol/mg of protein, Mean / pMol/mg, Mean: mean of 2 replicates
Procedure: as §1

mTEAD4 = biological target: T1, mTEAD4 (Mus musculus, UniProt Q62296); experiment: SPR binding to immobilised mTEAD4; settings: mTEAD4 amine-coupled on CM5, multi-cycle, steady-state fit 1:1 model, 10 mM HEPES 150 mM NaCl 0.05% Tween-20 pH 7.4, 0.3% DMSO, 20 °C, Fig. 1 values n = 1 replicate
T1 construct: Mouse TEAD4(210–427) cDNA fused with a 6x His-tag and a 3C protease cleavage site; 6x His-tag; 3C protease cleavage site; made in house; host or cells: E. coli BL21 DE3 RIL(K+)
Procedure: Sensor chips Series S CM5 (Research grade) were obtained from GE Healthcare. Prior to use, the sensor chips were equilibrated at room temperature for 15 min to prevent water condensation on the detector side of the sensor chip surface. A running buffer was prepared composed of 10 mM HEPES, 150 mM NaCl, and 0.05% (w/v) Tween-20, pH 7.4, and the system was equilibrated at 20 °C using a flow rate of 30 µL min^−1 after docking of the sensor chip. Ligand binding experiments have been performed applying the concept of multi-cycle kinetics. A contact time of 45 s was selected, followed by a 6-min dissociation phase to allow for complete dissociation of the analyte prior to the next cycle. […] Typically, seven concentrations of the analytes have been examined applying a threefold dilution pattern with 30 µM as top concentration. For the analysis, five running buffer blanks were injected to equilibrate the instrument. […] The carboxyl-dextran surface was activated for 7 min with 0.05 M NHS and 0.2 M EDC, followed by an injection of the proteins in 10 mM MES pH 6.4 at a concentration of 30–50 µg mL^−1. […] This was followed by a deactivation of the residual esters by injecting a solution of 0.5 M ethanolamine pH 8.0 for 7 min before engaging in ligand binding experiments. Reference surfaces were prepared accordingly, omitting the injection of protein over the activated reference surface.

[3] = 25 µM compound, 90 minutes, fractionation, UPLC-MS
[4] = 25 µM compound, 24 hours, fractionation, UPLC-MS
[5] = 90 minutes, dilution factor 10, replicate 1
[6] = 90 minutes, dilution factor 10, replicate 2
[7] = 24 hours, dilution factor 10, replicate 1
[8] = 24 hours, dilution factor 10, replicate 2

T1 sequence (Q62296 210-427): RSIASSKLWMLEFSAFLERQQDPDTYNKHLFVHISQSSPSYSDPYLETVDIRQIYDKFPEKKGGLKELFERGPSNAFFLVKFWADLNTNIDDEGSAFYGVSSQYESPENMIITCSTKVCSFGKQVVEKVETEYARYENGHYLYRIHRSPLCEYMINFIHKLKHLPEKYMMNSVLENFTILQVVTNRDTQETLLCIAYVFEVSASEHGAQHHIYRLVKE

Compound: CC(=O)NCC(=O)N[C@@H](CCCNC(=N)N)C(=O)N[C@@H](CCCCN)C(=O)N[C@@H](CCCCN)C(=O)N[C@@H](CCCNC(=N)N)C(=O)N[C@@H](CCCNC(=N)N)C(=O)N[C@@H](CCC(N)=O)C(=O)N[C@@H](CCCNC(=N)N)C(=O)N[C@@H](CCCNC(=N)N)C(=O)N[C@@H](CCCNC(=N)N)C(=O)N1CCC[C@H]1C(=O)N[C@@H](CCC(N)=O)C(N)=O [Tat, reference compound]
Sub-cellular drug content, Cytoplasm (RKO cells [1]; [3]): 0.137 nmol
Sub-cellular drug content, Cytoplasm, Measured concentration (RKO cells [1]; [3]): 91.363 ± 8.748 nM
Sub-cellular drug content, Nuclear (RKO cells [1]; [3]): 0.6254 nmol
Sub-cellular drug content, Nuclear, Measured concentration (RKO cells [1]; [3]): 416.901 ± 142.802 nM
Sub-cellular drug content, Cytoplasm (RKO cells [1]; [4]): 0.1476 nmol
Sub-cellular drug content, Cytoplasm, Measured concentration (RKO cells [1]; [4]): 98.42 ± 12.91 nM
Sub-cellular drug content, Nuclear (RKO cells [1]; [4]): 0.9853 nmol
Sub-cellular drug content, Nuclear, Measured concentration (RKO cells [1]; [4]): 656.841 ± 162.534 nM
pMol/mg, Mean (RKO cells [1]; Cytoplasm, 25 µM compound, 90 minutes (1.5 hrs), mean of 2 replicates): 209 pMol/mg
pMol/mg (RKO cells [1]; 25 µM compound, 90 minutes (1.5 hrs), replicate 1): 2567 pMol/mg
pMol/mg (RKO cells [1]; 25 µM compound, 90 minutes (1.5 hrs), replicate 2): 4988 pMol/mg
Cytoplasmic concentration of peptide (RKO cells [1]; UPLC-MS, mean of n = 2): 231.15 pMols/mg of protein
Nuclear concentration of peptide (RKO cells [1]; UPLC-MS, mean of n = 2): 3777.5 pMols/mg of protein
Total drug content, Measured Concentration (RKO cells [2]; 90 minutes): 478.752 ± 163.021 nM
Total drug content, Measured Concentration (RKO cells [2]; 24 hours): 1797.357 ± 596.21 nM
Total drug content (RKO cells [2]; 24 hours): 2.696 ± 0.8943 nmol
Measured Conc (RKO cells [2]; [5]): 641.773 nM
Measured Conc (RKO cells [2]; [6]): 315.731 nM
pMol/mg of protein, Mean (RKO cells [2]; 90 minutes): 882.5 pMol/mg of protein
Measured Conc (RKO cells [2]; [7]): 2393.57 nM
Measured Conc (RKO cells [2]; [8]): 1201.15 nM
pMol/mg, Mean (RKO cells [2]; 24 hours): 1647 pMol/mg

Kd (mTEAD4): 2 ± 0.14 µM
Compound: CC[C@H](C)[C@@H]1NC(=O)[C@H](CCC(N)=O)NC(=O)[C@H](C)NC(=O)[C@H](Cc2c[nH]c3ccccc23)NC(=O)[C@H]([C@@H](C)O)NC(=O)[C@H](CC(=O)O)NC(=O)CNC(=O)[C@H](CC(C)C)NC(=O)[C@H](C)NC(=O)[C@H](CCCCN)NC(=O)[C@H](C)NC(=O)[C@H](Cc2ccccc2)NC(=O)[C@H](Cc2c[nH]cn2)NC(=O)[C@H](CC(=O)O)NC(=O)[C@@H](NC(=O)[C@@H](NC(=O)[C@H](CO)NC(C)=O)C(C)C)CCC(=O)NCCCC[C@@H](C(=O)N[C@@H](C)C(=O)N[C@@H](C)C(N)=O)NC1=O [compound 24] (Ac-SVEDHFAKALGDTWAQIKAA-NH2; lactam 3-18)

Kd (mTEAD4): 1.5 ± 0.37 µM
Compound: CC[C@H](C)[C@@H]1NC(=O)[C@H](CCC(N)=O)NC(=O)[C@H](CC(C)C)NC(=O)[C@H](Cc2c[nH]c3ccccc23)NC(=O)[C@H]([C@@H](C)O)NC(=O)[C@H](CC(=O)O)NC(=O)CNC(=O)[C@H](CC(C)C)NC(=O)[C@H](C)NC(=O)[C@H](CCCCN)NC(=O)[C@H](C)NC(=O)[C@H](Cc2ccccc2)NC(=O)[C@H](Cc2c[nH]cn2)NC(=O)[C@H](CC(=O)O)NC(=O)[C@@H](NC(=O)[C@H](C)NC(=O)[C@H](CO)NC(C)=O)CCC(=O)NCCCC[C@@H](C(=O)N[C@@H](C)C(=O)N[C@@H](C)C(N)=O)NC1=O [compound 15] (Ac-SAEDHFAKALGDTWLQIKAA-NH2; lactam 3-18)

Kd (mTEAD4): 11 µM
Compound: CC[C@H](C)[C@@H]1NC(=O)[C@H](CCC(N)=O)NC(=O)[C@H](CC(C)C)NC(=O)[C@H](Cc2c[nH]c3ccccc23)NC(=O)[C@H]([C@@H](C)O)NC(=O)[C@H](CC(=O)O)NC(=O)CNC(=O)[C@H](CC(C)C)NC(=O)[C@H](C)NC(=O)[C@H](CCCCN)NC(=O)[C@H](C)NC(=O)[C@H](Cc2ccccc2)NC(=O)[C@H](Cc2c[nH]cn2)NC(=O)[C@H](CC(=O)O)NC(=O)[C@@H](NC(=O)[C@@H](NC(=O)[C@H](CO)NC(C)=O)C(C)C)CC(=O)NCCC[C@@H](C(=O)N[C@@H](C)C(=O)N[C@@H](C)C(N)=O)NC1=O [4B] (Ac-SVDDHFAKALGDTWLQI[Orn]AA-NH2; lactam 3-18)

Kd (mTEAD4): 3.2 µM
Compound: CC[C@H](C)[C@@H]1NC(=O)[C@H](CCC(N)=O)NC(=O)[C@H](CC(C)C)NC(=O)[C@H](Cc2c[nH]c3ccccc23)NC(=O)[C@H]([C@@H](C)O)NC(=O)[C@H](CC(=O)O)NC(=O)CNC(=O)[C@H](CC(C)C)NC(=O)[C@H](C)NC(=O)[C@H](CCCCN)NC(=O)[C@H](C)NC(=O)[C@H](Cc2ccccc2)NC(=O)[C@H](Cc2c[nH]cn2)NC(=O)[C@H](CC(=O)O)NC(=O)[C@@H](NC(=O)[C@@H](NC(=O)[C@H](CO)NC(C)=O)C(C)C)CC(=O)NCCCC[C@@H](C(=O)N[C@@H](C)C(=O)N[C@@H](C)C(N)=O)NC1=O [4C] (Ac-SVDDHFAKALGDTWLQIKAA-NH2; lactam 3-18)

Sub-cellular drug content, Cytoplasm, Measured concentration (RKO cells [1]; [3]): < LLOQ
Sub-cellular drug content, Cytoplasm, nMol (RKO cells [1]; [3]): < LLOQ
Sub-cellular drug content, Nuclear, Measured concentration (RKO cells [1]; [3]): < LLOQ
Sub-cellular drug content, Nuclear, nMol (RKO cells [1]; [3]): < LLOQ
Sub-cellular drug content, Cytoplasm, pMol.mg-1 (RKO cells [1]; [3]): < LLOQ
Sub-cellular drug content, Nuclear, pMol.mg-1 (RKO cells [1]; [3]): < LLOQ
Sub-cellular drug content, Cytoplasm, Measured concentration (RKO cells [1]; [4]): < LLOQ
Sub-cellular drug content, Cytoplasm, nMol (RKO cells [1]; [4]): < LLOQ
Sub-cellular drug content, Nuclear, Measured concentration (RKO cells [1]; [4]): < LLOQ
Sub-cellular drug content, Nuclear, nMol (RKO cells [1]; [4]): < LLOQ
Sub-cellular drug content, Cytoplasm, pMol.mg-1 (RKO cells [1]; [4]): < LLOQ
Sub-cellular drug content, Nuclear, pMol.mg-1 (RKO cells [1]; [4]): < LLOQ
Cytoplasmic concentration of peptide (RKO cells [1]; UPLC-MS, raw data replicate 1): <LLOQ
Cytoplasmic concentration of peptide (RKO cells [1]; UPLC-MS, raw data replicate 2): <LLOQ
Nuclear concentration of peptide (RKO cells [1]; UPLC-MS, raw data replicate 1): <LLOQ
Nuclear concentration of peptide (RKO cells [1]; UPLC-MS, raw data replicate 2): <LLOQ
Cytoplasmic concentration, raw data (RKO cells [1]; UPLC-MS, replicate 1): <LLOQ
Nuclear concentration, raw data (RKO cells [1]; UPLC-MS, replicate 1): <LLOQ
Cytoplasmic concentration, raw data (RKO cells [1]; UPLC-MS, replicate 2): <LLOQ
Nuclear concentration, raw data (RKO cells [1]; UPLC-MS, replicate 2): <LLOQ
Detection in cytoplasmic and nuclear fractions (RKO cells [1]; unlabelled peptide 25 µM, 90 min and 24 h, fractionation, UPLC-MS): not detected in subcellular fractions
Intracellular concentration (RKO cells [1]; unlabelled peptide 25 µM, 90 min incubation, n = 2 biological replicates): < LLOQ
Intracellular concentration (RKO cells [1]; unlabelled peptide 25 µM, 24 hours incubation, N = 2 biological replicates): < LLOQ
Total drug content, Measured Concentration (RKO cells [2]; 90 minutes): 1133.521 ± 133.393 nM
Total drug content (RKO cells [2]; 90 minutes): 1.7 ± 0.2001 nmol
Total drug content, Measured Concentration (RKO cells [2]; 24 hours): 322.145 ± 33.657 nM
Total drug content (RKO cells [2]; 24 hours): 0.4832 ± 0.05049 nmol
Measured Conc (RKO cells [2]; [5]): 1266.91 nM
Measured Conc (RKO cells [2]; [6]): 1000.13 nM
pMol/mg of protein, Mean (RKO cells [2]; 90 minutes): 1685.1 pMol/mg of protein
Measured Conc (RKO cells [2]; [7]): 355.802 nM
Measured Conc (RKO cells [2]; [8]): 288.488 nM
pMol/mg, Mean (RKO cells [2]; 24 hours): 331.25 pMol/mg
Compound: CC[C@H](C)[C@H](NC(=O)[C@H](CCC(N)=O)NC(=O)[C@H](CC(C)C)NC(=O)[C@H](Cc1c[nH]c2ccccc12)NC(=O)[C@@H](NC(=O)[C@H](CC(=O)O)NC(=O)CNC(=O)[C@H](CC(C)C)NC(=O)[C@H](C)NC(=O)[C@H](CCCCN)NC(=O)[C@H](C)NC(=O)[C@H](Cc1ccccc1)NC(=O)[C@H](Cc1c[nH]cn1)NC(=O)[C@H](CC(=O)O)NC(=O)[C@H](CC(=O)O)NC(=O)[C@@H](NC(=O)[C@H](CO)NC(C)=O)C(C)C)[C@@H](C)O)C(=O)N[C@@H](CCCCN)C(=O)N[C@@H](C)C(=O)N[C@@H](C)C(N)=O [compound 4] (Ac-SVDDHFAKALGDTWLQIKAA-NH2)

Kd (mTEAD4): 11 µM
Compound: CC[C@H](C)[C@@H]1NC(=O)[C@H](CCC(N)=O)NC(=O)[C@H](CC(C)C)NC(=O)[C@H](Cc2c[nH]c3ccccc23)NC(=O)[C@H]([C@@H](C)O)NC(=O)[C@H](CC(=O)O)NC(=O)CNC(=O)[C@H](CC(C)C)NC(=O)[C@H](C)NC(=O)[C@H](CCCCN)NC(=O)[C@H](C)NC(=O)[C@H](Cc2ccccc2)NC(=O)[C@H](Cc2c[nH]cn2)NC(=O)[C@H](CC(=O)O)NC(=O)[C@@H](NC(=O)[C@@H](NC(=O)[C@H](CO)NC(C)=O)C(C)C)CC(=O)NCC[C@@H](C(=O)N[C@@H](C)C(=O)N[C@@H](C)C(N)=O)NC1=O [4A] (Ac-SVDDHFAKALGDTWLQI[Dab]AA-NH2; lactam 3-18)
